How the values were obtained:
[1] = test system: non-small cell lung cancer cell line H460; experiment: H460 proliferation assay in the presence of 3 uM ASP9521 (AKR1C3 specific inhibitor); format: cell-based, human; conditions: H460 cells, CellTiter-Glo, 72 hours, in the presence of 3 uM ASP9521 added 4 hours prior to compounds; read-out: CTG H460: Avg IC50 (nM) [Assay Condition: ASP9521]
How it was run: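 AKR1C3 blocked with 3 uM ASP9521 given 4 h ahead of test compounds. H460 cells, plated 24 h earlier, were then treated for 72 h at 37 °C in 5% CO2. CellTiter-Glo luminescence gave viability.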

[2] = test system: non-small cell lung cancer cell line H460; experiment: In vitro human cancer cell line cytotoxicity (proliferation) assay in H460, CellTiter-Glo, 72 hours; format: cell-based; conditions: DMSO condition (no AKR1C3 inhibitor), read-out: CTG H460: Avg IC50 (nM) [Assay Condition: DMSO]
How it was run: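 IC50s in nM come from CellTiter-Glo viability read after 72 h of compound exposure. Compounds went in from 10 mM DMSO stocks onto H460 cells, which had been plated at 3×10^3 per well and grown 24 h beforehand at 37 °C, 5% CO2.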

[3] = Homo sapiens, NCI-H460, 72 h, H460 cells
[4] = Homo sapiens, NCI-H460, H460 cells

Compound	IC50 [1]	IC50 ([2]; H460 cells)	IC50 [2, 3]	IC50 [2, 4]
O=[N+]([O-])c1ccc2c(c1Oc1cccc(-c3ccc(F)cn3)c1)CCC2OP(=O)(N1CC1)N1CC1 (centres unmarked) [Example 323]	2690 nM	< 10 nM	–	–
CC(C)(C)c1cncc(Oc2c([N+](=O)[O-])ccc3c2CCC3OP(=O)(N2CC2)N2CC2)c1 (centres unmarked) [Example 325]	608 nM	< 10 nM	–	–
Cc1noc(-c2cc(Oc3c([N+](=O)[O-])ccc4c3CC[C@@H]4OP(=O)(N3CC3)N3CC3)ccc2F)n1 [Example 326]	1270 nM	–	< 10 nM	–
O=[N+]([O-])c1ccc2c(c1Oc1ccc(F)c(-c3ncccn3)c1)CC[C@@H]2OP(=O)(N1CC1)N1CC1 [Example 327]	1710 nM	–	< 10 nM	–
O=[N+]([O-])c1ccc2c(c1Oc1ccc(F)c(-c3ccc(F)cn3)c1)CCC2OP(=O)(N1CC1)N1CC1 (centres unmarked) [Example 328]	4230 nM	< 10 nM	–	–
O=[N+]([O-])c1ccc2c(c1Oc1ccc(F)c(-c3ncc(F)cn3)c1)CCC2OP(=O)(N1CC1)N1CC1 (centres unmarked) [Example 329]	2440 nM	< 10 nM	–	–
Cn1cc(-c2cc(Oc3c([N+](=O)[O-])ccc4c3CCC4OP(=O)(N3CC3)N3CC3)ccc2F)cn1 (centres unmarked) [Example 330]	2980 nM	< 10 nM	–	–
CC(C)c1cc(Oc2c([N+](=O)[O-])ccc3c2CCC3OP(=O)(N2CC2)N2CC2)ccc1F (centres unmarked) [Example 331]	1050 nM	< 10 nM	–	–
CC(C)c1cc(Oc2c([N+](=O)[O-])ccc3c2CCC3OP(=O)(N2CC2)N2CC2)ccc1F (centres unmarked) [Example 332]	1960 nM	< 10 nM	–	–
O=[N+]([O-])c1ccc2c(c1Oc1ccc(O)c(-c3ccc(F)cn3)c1)CCC2OP(=O)(N1CC1)N1CC1 (centres unmarked) [Example 333]	1310 nM	< 10 nM	–	–
O=[N+]([O-])c1ccc2c(c1Oc1ccc(O)c(-c3ccc(F)cn3)c1)CCC2OP(=O)(N1CC1)N1CC1 (centres unmarked) [Example 334]	824 nM	< 10 nM	–	–
O=[N+]([O-])c1ccc2c(c1Oc1ccc(F)c(C3CC3)c1)CCC2OP(=O)(N1CC1)N1CC1 (centres unmarked) [Example 335]	1910 nM	< 10 nM	–	–
O=[N+]([O-])c1ccc2c(c1Oc1ccc(F)c(-c3ccccn3)c1)CCC2OP(=O)(N1CC1)N1CC1 (centres unmarked) [Example 336]	1680 nM	< 10 nM	–	–
O=[N+]([O-])c1ccc2c(c1Oc1ccc(F)c(-c3ccccn3)c1)CC[C@@H]2OP(=O)(N1CC1)N1CC1 [Example 337]	5800 nM	10 to 50 nM	–	–
O=[N+]([O-])c1ccc2c(c1Oc1ccc(O)c(-c3ncc(F)cn3)c1)CCC2OP(=O)(N1CC1)N1CC1 (centres unmarked) [Example 338]	5560 nM	10 to 50 nM	–	–
COc1ccc(Oc2c([N+](=O)[O-])ccc3c2CCC3OP(=O)(N2CC2)N2CC2)cc1-c1ccc(F)cn1 (centres unmarked) [Example 339]	1360 nM	< 10 nM	–	–
Cc1csc(-c2cc(Oc3c([N+](=O)[O-])ccc4c3CCC4OP(=O)(N3CC3)N3CC3)ccc2F)n1 (centres unmarked) [Example 340]	4390 nM	10 to 50 nM	–	–
O=[N+]([O-])c1ccc2c(c1Oc1ccc(O)c(-c3ncccn3)c1)CC[C@@H]2OP(=O)(N1CC1)N1CC1 [Example 341]	1920 nM	–	< 10 nM	–
Cc1cnc(-c2cccc(Oc3c([N+](=O)[O-])ccc4c3CC[C@@H]4OP(=O)(N3CC3)N3CC3)c2)s1 [Example 342]	4270 nM	–	10 to 50 nM	–
Cc1csc(-c2cccc(Oc3c([N+](=O)[O-])ccc4c3CC[C@@H]4OP(=O)(N3CC3)N3CC3)c2)n1 [Example 343]	2300 nM	–	< 10 nM	–
Cc1ncc(-c2cccc(Oc3c([N+](=O)[O-])ccc4c3CC[C@@H]4OP(=O)(N3CC3)N3CC3)c2)[nH]1 [Example 344]	1510 nM	–	< 10 nM	–
Cn1cnc(-c2cccc(Oc3c([N+](=O)[O-])ccc4c3CC[C@@H]4OP(=O)(N3CC3)N3CC3)c2)c1 [Example 345]	2110 nM	–	–	< 10 nM
O=[N+]([O-])c1ccc2c(c1Oc1ccc(F)c(-c3ncns3)c1)CC[C@@H]2OP(=O)(N1CC1)N1CC1 [Example 347]	1300 nM	–	< 10 nM	–
COc1ccc(Oc2c([N+](=O)[O-])ccc3c2CC[C@@H]3OP(=O)(N2CC2)N2CC2)cc1C1CC1 [Example 348]	827 nM	–	< 10 nM	–
Cc1nnc(-c2cccc(Oc3c([N+](=O)[O-])ccc4c3CC[C@@H]4OP(=O)(N3CC3)N3CC3)c2)s1 [Example 349]	498 nM	–	< 10 nM	–
Cn1cncc1-c1cccc(Oc2c([N+](=O)[O-])ccc3c2CC[C@@H]3OP(=O)(N2CC2)N2CC2)c1 [Example 350]	1870 nM	–	< 10 nM	–

Compound	IC50 [1]	IC50 ([2]; H460 cells)	IC50 [2, 3]	IC50 [2, 4]
O=[N+]([O-])c1ccc2c(c1Oc1cccc(-c3ccnn3CCO)c1)CC[C@@H]2OP(=O)(N1CC1)N1CC1 [Example 351]	1570 nM	–	< 10 nM	–
O=[N+]([O-])c1ccc2c(c1Oc1cccc(-c3nncs3)c1)CC[C@H]2OP(=O)(N1CC1)N1CC1 [Example 352]	268 nM	–	< 10 nM	–
COc1cc(Oc2c([N+](=O)[O-])ccc3c2CC[C@@H]3OP(=O)(N2CC2)N2CC2)cc(-c2ccc(F)cn2)c1 [Example 353]	1010 nM	–	< 10 nM	–
Cn1nnc(-c2cccc(Oc3c([N+](=O)[O-])ccc4c3CC[C@@H]4OP(=O)(N3CC3)N3CC3)c2)n1 [Example 354]	768 nM	–	< 10 nM	–
Cn1nnc(-c2cc(Oc3c([N+](=O)[O-])ccc4c3CC[C@@H]4OP(=O)(N3CC3)N3CC3)ccc2F)n1 [Example 355]	1130 nM	–	< 10 nM	–
O=[N+]([O-])c1ccc2c(c1Oc1cc(F)cc(-c3ncccn3)c1)CC[C@@H]2OP(=O)(N1CC1)N1CC1 [Example 356]	1990 nM	–	< 10 nM	–
COc1cc(Oc2c([N+](=O)[O-])ccc3c2CC[C@@H]3OP(=O)(N2CC2)N2CC2)cc(-c2ncccn2)c1 [Example 357]	467 nM	–	< 10 nM	–
O=[N+]([O-])c1ccc2c(c1Oc1cc(F)cc(-c3ccc(F)cn3)c1)CC[C@@H]2OP(=O)(N1CC1)N1CC1 [Example 358]	1740 nM	–	< 10 nM	–
Cc1nsc(-c2cc(Oc3c([N+](=O)[O-])ccc4c3CC[C@@H]4OP(=O)(N3CC3)N3CC3)ccc2F)n1 [Example 359]	1470 nM	–	–	< 10 nM
Cc1nsc(-c2cccc(Oc3c([N+](=O)[O-])ccc4c3CC[C@@H]4OP(=O)(N3CC3)N3CC3)c2F)n1 [Example 360]	391 nM	–	< 10 nM	–
Cc1coc(-c2cccc(Oc3c([N+](=O)[O-])ccc4c3CC[C@@H]4OP(=O)(N3CC3)N3CC3)c2)n1 [Example 361]	3910 nM	–	10 to 50 nM	–
O=[N+]([O-])c1ccc2c(c1Oc1cccc(-c3cnc[nH]3)c1)CC[C@@H]2OP(=O)(N1CC1)N1CC1 [Example 362]	1660 nM	–	< 10 nM	–
O=[N+]([O-])c1ccc2c(c1Oc1ccc(F)c(-c3nncs3)c1)CC[C@@H]2OP(=O)(N1CC1)N1CC1 [Example 363]	584 nM	–	< 10 nM	–
O=[N+]([O-])c1ccc2c(c1Oc1cc(F)cc(-c3ncc(F)cn3)c1)CC[C@@H]2OP(=O)(N1CC1)N1CC1 [Example 364]	4030 nM	–	10 to 50 nM	–
COc1cc(Oc2c([N+](=O)[O-])ccc3c2CC[C@@H]3OP(=O)(N2CC2)N2CC2)cc(-c2ncc(F)cn2)c1 [Example 365]	1320 nM	–	< 10 nM	–
Cn1nccc1-c1cccc(Oc2c([N+](=O)[O-])ccc3c2CCC3OP(=O)(N2CC2)N2CC2)c1 (centres unmarked) [Example 366]	636 nM	< 10 nM	–	–
O=[N+]([O-])c1ccc2c(c1Oc1cccc(-c3ccnn3CC(F)F)c1)CC[C@@H]2OP(=O)(N1CC1)N1CC1 [Example 367]	321 nM	–	< 10 nM	–
CCc1nsc(-c2cccc(Oc3c([N+](=O)[O-])ccc4c3CC[C@@H]4OP(=O)(N3CC3)N3CC3)c2)n1 [Example 368]	3360 nM	–	10 to 50 nM	–
O=[N+]([O-])c1ccc2c(c1Oc1cccc(-c3cn[nH]c3)c1)CC[C@@H]2OP(=O)(N1CC1)N1CC1 [Example 369]	938 nM	–	< 10 nM	–
O=[N+]([O-])c1ccc2c(c1Oc1ccc(F)c(-c3cn[nH]c3)c1)CC[C@@H]2OP(=O)(N1CC1)N1CC1 [Example 370]	967 nM	–	< 10 nM	–
O=[N+]([O-])c1ccc2c(c1Oc1cccc(-c3c(F)cnn3CCO)c1)CC[C@@H]2OP(=O)(N1CC1)N1CC1 [Example 371]	591 nM	–	< 10 nM	–
O=[N+]([O-])c1ccc2c(c1Oc1cccc(-c3cc(F)nn3CCO)c1)CC[C@@H]2OP(=O)(N1CC1)N1CC1 [Example 372]	332 nM	–	< 10 nM	–
Cn1ncc(F)c1-c1cccc(Oc2c([N+](=O)[O-])ccc3c2CCC3OP(=O)(N2CC2)N2CC2)c1 (centres unmarked) [Example 373]	672 nM	< 10 nM	–	–
Cn1nc(F)cc1-c1cccc(Oc2c([N+](=O)[O-])ccc3c2CCC3OP(=O)(N2CC2)N2CC2)c1 (centres unmarked) [Example 374]	468 nM	< 10 nM	–	–
Cn1nc(-c2cccc(Oc3c([N+](=O)[O-])ccc4c3CC[C@@H]4OP(=O)(N3CC3)N3CC3)c2)cc1F [Example 375]	2520 nM	–	< 10 nM	–
CSc1ccc(Oc2c([N+](=O)[O-])ccc3c2CC[C@@H]3OP(=O)(N2CC2)N2CC2)cc1-c1nc(C)ns1 [Example 376]	1850 nM	–	< 10 nM	–
